Results: ChEMBL document CHEMBL4699500, “Synthesis of metronidazole based thiazolidinone analogs as promising antiamoebic agents” (Bioorg Med Chem Lett, 2020)

Assays:
Entamoeba histolytica = test: Antimicrobial activity against Entamoeba histolytica HM1:MMS assessed as reduction in amoeba growth incubated for 72 hrs by microscopy analysis; assay type: functional, organism-based
HEK293 [1] = test: Cytotoxicity against human HEK293 cells assessed as reduction in cell viability at 100 uM incubated for 48 hrs by MTT assay; assay type: cell-based; conditions: hek293, 48 h
HEK293 [2] = test: Cytotoxicity against human HEK293 cells assessed as reduction in cell viability at 2.5 to 50 uM incubated for 48 hrs by MTT assay; assay type: cell-based; conditions: hek293, 48 h, dose 2.5-50 µM

SMILES	IC50 (Entamoeba histolytica) [µM]	Activity (HEK293 [1])	Activity (HEK293 [2])
Cc1ncc([N+](=O)[O-])n1CCOc1ccc(/C=C2\S/C(=N\c3ccccc3)N(Cc3ccccc3Cl)C2=O)cc1	2.32		
Cc1ncc([N+](=O)[O-])n1CCOc1ccc(/C=C2\S/C(=N\c3ccccc3)N(Cc3ccncc3)C2=O)cc1	0.37	Non-Toxic	Non-Toxic
Cc1ncc([N+](=O)[O-])n1CCOc1ccc(/C=C2\S/C(=N\c3ccccc3)N(CC3CCCO3)C2=O)cc1 (stereo not drawn)	3.1		
Cc1ncc([N+](=O)[O-])n1CCOc1ccc(/C=C2\S/C(=N\c3ccccc3)N(Cc3ccco3)C2=O)cc1	0.64		Non-Toxic
COc1ccc(CN2C(=O)/C(=C/c3ccc(OCCn4c([N+](=O)[O-])cnc4C)cc3)S/C2=N\c2ccccc2)cc1OC	1.05		Non-Toxic
CCCN1C(=O)/C(=C/c2ccc(OCCn3c([N+](=O)[O-])cnc3C)cc2)S/C1=N\c1ccccc1	3.62		
Cc1ncc([N+](=O)[O-])n1CCOc1ccc(/C=C2\S/C(=N\c3ccccc3)N(Cc3ccc(Cl)cc3Cl)C2=O)cc1	2.19		
Cc1ncc([N+](=O)[O-])n1CCOc1ccc(/C=C2\S/C(=N\c3ccccc3)N(CCO)C2=O)cc1	0.18		Non-Toxic
Cc1ncc([N+](=O)[O-])n1CCOc1ccc(/C=C2\S/C(=N\c3ccccc3)N(CC(C)C)C2=O)cc1	3.95		
Cc1ncc([N+](=O)[O-])n1CCOc1ccc(/C=C2\S/C(=N\c3ccccc3)N(Cc3ccc(F)cc3)C2=O)cc1	2.84		
CCCCN1C(=O)/C(=C/c2ccc(OCCn3c([N+](=O)[O-])cnc3C)cc2)S/C1=N\c1ccccc1	4.97		
Cc1ncc([N+](=O)[O-])n1CCOc1ccc(/C=C2\S/C(=N\c3ccccc3)N(Cc3ccccc3)C2=O)cc1	1.65	Non-Toxic	Non-Toxic
Cc1ncc([N+](=O)[O-])n1CCOc1ccc(/C=C2\S/C(=N\c3ccccc3)N(Cc3cccs3)C2=O)cc1	1.63	Non-Toxic	Non-Toxic
Cc1ncc([N+](=O)[O-])n1CCO [METRONIDAZOLE]			Non-Toxic
